The values below come from patent publication US12285013B2, “Processing method for increasing seed production rate of seed fruits of Cucumis sativus L” (Yangzhou University, priority 2023, dated 2025).

The test system of the assay is seed fruits of Cucumis sativus L. The assay is described as follows: Soaking and dipping of female flowers of seed fruits of Cucumis sativus L. in the pollination stage. Type of assay: in vivo. As to conditions: 50 μM solution with Tween 80 10000:1, greenhouse. As to the method:
A processing method for increasing seed production efficiency of seed fruits of Cucumis sativus L., comprising the following steps: • (1) Preparing a plant growth regulator according to a formula proportion; • Preparing a 5-azacytidine solution with a concentration of 50 μM, adding an emulsifier Tween 80 at the same time, and mixing the 5-azacytidine solution and the emulsifier Tween 80 at a proportion of 10000:1 to obtain the plant growth regulator; • (2) Selecting seed fruits of Cucumis sativus L. growing naturally in a greenhouse and reaching a pollination stage, and dipping female flowers thereof with the plant growth regulator prepared in step (1) before pollination; • (3) Picking male flowers for pollination after the female flowers are completely dry; • (4) Dipping the pollinated female flowers again; • (5) Conducting field routine cultivation management.
In step (2), the preserved solution of the prepared plant growth regulator is poured into any container, and the female flowers of the seed fruits of Cucumis sativus L. reaching a pollination stage are completely immersed in the plant growth regulator in the container for at least 5 seconds.
In step (2), in the greenhouse, the temperature is stabilized at 20° C.-35° C., the humidity is 70%-90%, the pH value of the cultivation soil is 6.5, a selected species of Cucumis sativus L. is a species of North China Cucumis sativus L. used for seed production, a row spacing for seed fruit cultivation is fixed at 75 cm, a planting distance is 25 cm, and the number of plants planted in each row is 80.
Step (3) is specifically as follows: picking male flowers blooming on the same plant, removing all petals, poking stamens of the male flowers into the female flowers after the female flowers soaked and dipped by the plant growth regulator are completely dry, and repeating the process for multiple times to increase pollination success rate.
Step (4) is specifically as follows: repeating the soaking and dipping treatment described in step (2) for successfully pollinated female flowers of Cucumis sativus L. on the third day after pollination.
In a third aspect of the present invention, a processing method for increasing seed production efficiency of seed fruits of Cucumis sativus L. is provided, which mainly comprises the following steps: • (1) Preparing a reagent. Specifically: preparing a 5-azacytidine solution with a concentration of 50 μM, adding an emulsifier Tween 80 at the same time according to a proportion of 10000:1, and preserving the reagent in a refrigerator at 4° C. • (2) Selecting seed fruits of Cucumis sativus L. growing naturally in a greenhouse and reaching a pollination stage, and dipping female flowers thereof with the reagent prepared in step (1) before pollination. […]

The mark [1] stands for this setting: female flowers dipped before pollination and on the third day after.

As to `Nc1ncn([C@@H]2O[C@H](CO)[C@@H](O)[C@H]2O)c(=O)n1` [5-azacytidine], under setting [1], the “fruit length of the seed fruits” value is “significantly reduced”, the “number of seeds of the seed fruits” value is “without affecting” and the “seed production efficiency of the seed fruits” value is on record as “increased”. The “weight of Cucumis sativus L. (fruit weight)” value (female flowers treated in the pollination stage) is “significantly reduce”.
